From US20230203482A1, “Methods of Rescuing Stop Codons via Genetic Reassignment with ACE-tRNA” (THE WISTAR INSTITUTE OF ANATOMY AND BIOLOGY, priority 2017, published 2023)

B1: Glychr19.trna2: top performing glycine ACE-tRNA UGA suppressor, SEQ ID NO: 53 (nucleic acid)
chain: GCGTTGGTGGTATAGTGGTTAGCATAGCTGCCTTCAAAGCAGTTGACCCGGGTTCGATTCCCGGCCAACGCA
modifications: chemistry not fully specified

Tests used:
[1] = tested on: histidinol dehydrogenase (HDH) N94-TGA; assay: Mass spectrometry of suppressed histidinol dehydrogenase (cognate amino acid encoding); type: cell-based, E. coli; conditions: MS/MS of tryptic fragment
Excerpt: (§1) For expression in mammalian cells, the cDNA for the coding region and 200 base-pair of the 3′ untranslated region (UTR) of human CFTR was ligated into pcDNA3.1(+) (Promega, USA) using the KpnI and XbaI restriction enzymes. The G542tga and W1282tga mutations were introduced using QuickChange XL II (Stratagene, USA). For expression in Xenopus laevis oocytes, the cDNA for the coding region and 140 base-pair of the 5′ and 244 base-pair 3′ UTR of human CFTR was ligated into pGEM-HE (Promega, USA). Bothe the G542tga and W1282tga mutations were introduced using QuickChange XL II. The cDNA encoding the E. coli histidinol dehydrogenase was codon optimized for Mus musculus and synthesized (BioBasic Inc, Canada) with a c-terminal 8xHis-Strep-tag for protein purification from mammalian cells. The synthesized cDNA was ligated into pcDNA3.1(+) using EcoRI and XhoI restriction sites. The nonsense mutations tag, taa and tga were introduced using QuickChange XL II. […]

[2] = tested on: CFTR W1282X; assay: CFTR W1282X rescue, western blot in HEK cells; type: cell-based, human; conditions: CFTR W1282X cDNA co-expressed in HEK cells, antibody M3A7
Experimental: To assess is these novel tRNA could rescue CFTR channels harboring nonsense codons, they were co-expressed in mammalian HEK cells with a CFTR W1282X cDNA plasmid. The cellular preparations were analyzed by standard biochemical approaches via Western blot assessment of CFTR protein. […] Specifically, the “B” and “C” bands represent the full-length and fully mature, post-translationally proceeded CFTR protein at the cell surface, respectively. […] FIG. 9.
as §1, with “sites.” for “sites. The nonsense mutations tag, taa and tga were introduced using QuickChange XL II.”

Row | Molecule | mass modification of Asn at HDH N94 [1] | rescue of full-length CFTR protein (B and C bands) [2]
1 | Trpchr17.trna39: top performing tryptophan ACE-tRNA UGA suppressor, SEQ ID NO: 48 | +72 Da | robust populations of ‘B’ and ‘C’ CFTR immunopositive (antibody MA37) bands
2 | B1 | −57 Da | robust populations of ‘B’ and ‘C’ CFTR immunopositive (antibody MA37) bands
